Laboratory results published in patent publication US20230416238A1, “N-[(1,3-BENZOXAZOL-2-YL)-HETEROCYCLE]AMIDE DERIVATIVES FOR THE TREATMENT AND PROPHYLAXIS OF HEPATITIS B VIRUS INFECTION” (Hoffmann-La Roche Inc., priority 2020, published 2023).
pIC50: −log10 of the molar value.

Legend:
Format in all cases: cell-based
HBsAg = assay: PHH HBV natural infection assay, HBsAg (alphalisa); conditions: Hepatitis B virus, Hepatocyte, read-out: HBsAg IC50
How it was run: (§1)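 Primary human hepatocytes infected with HBV at 200 GE/cell plus 4% PEG8000 for 24 h, then sandwich-cultured 72 h in medium with 1% DMSO. Compound applied twice at 72-h intervals; supernatant HBsAg and HBeAg quantified by AlphaLISA.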

HBeAg = assay: PHH HBV natural infection assay, HBeAg (alphalisa); conditions: Hepatitis B virus, Hepatocyte, read-out: HBeAg IC50
How it was run: as §1

[1] = Cytotoxicity in PHH natural infection assay (Cell Counting Kit-8); conditions: HBV-infected primary human hepatocytes, CCK8
How it was run: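 HBV-infected primary human hepatocytes (200 GE/cell, 4% PEG8000, 24 h), then sandwich-cultured 72 h. Cells dosed at varying concentrations for two 72-hour cycles, with medium refreshed. Cytotoxicity read by CCK-8 at end of treatment.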

Compound	pIC50 (HBsAg)	pIC50 (HBeAg)	CC50 at 144 h [1] [µM]
CC(C)COC(=O)NC1CC2(C1)CN(c1nc3cc(Cl)ccc3o1)C2 [Example 22, Isobutyl N-[2-(5-chloro-1,3-benzoxazol-2-yl)-2-azaspiro[3.3]heptan-6-yl]carbamate]	5.23	5.32	82.7
O=C(NC1CCC2(CC1)CCN(c1nc3cc(Cl)ccc3o1)CC2)C1COC1 [Example 85, N-[3-(5-chloro-1,3-benzoxazol-2-yl)-3-azaspiro[5.5]undecan-9-yl]oxetane-3-carboxamide]	5.06	5.21	70.9
CC(C)C(=O)NC1CCC2(CC1)CCN(c1nc3cc(Cl)ccc3o1)CC2 [Example 79, N-[3-(5-chloro-1,3-benzoxazol-2-yl)-3-azaspiro[5.5]undecan-9-yl]-2-methyl-propanamide]	5.05	4.94	> 100
NS(=O)(=O)CCC(=O)NC1CCC2(CC1)CCN(c1nc3cc(Cl)ccc3o1)CC2 [Example 82, N-[3-(5-chloro-1,3-benzoxazol-2-yl)-3-azaspiro[5.5]undecan-9-yl]-3-sulfamoyl-propanamide]	5.51	5.64	76.3
CC(C)Oc1cc(C(=O)NC2CC3(C2)CN(c2nc4ccc(Cl)cc4o2)C3)ccn1 [Example 41, N-[2-(6-chloro-1,3-benzoxazol-2-yl)-2-azaspiro[3.3]heptan-6-yl]-2-isopropoxy-pyridine-4-carboxamide]	5.23	5.42	> 10
CCS(=O)(=O)c1ccc(C(=O)NC2CC3(C2)CN(c2nc4cc(Cl)ccc4o2)C3)o1 [Example 58, N-[2-(5-chloro-1,3-benzoxazol-2-yl)-2-azaspiro[3.3]heptan-6-yl]-5-ethylsulfonyl-furan-2-carboxamide]	6.04	6.09	> 100
CC(C)CC(=O)NC1CCC2(CC1)CCN(c1nc3cc(Cl)ccc3o1)CC2 [Example 80, N-[3-(5-chloro-1,3-benzoxazol-2-yl)-3-azaspiro[5.5]undecan-9-yl]-3-methyl-butanamide]	5.57	5.55	> 100
O=C(NC1CCC2(CC1)CCN(c1nc3cc(Cl)ccc3o1)CC2)c1ccc([S+]([O-])CC2CC2)o1 (stereo not drawn) [Example 104, N-[3-(5-chloro-1,3-benzoxazol-2-yl)-3-azaspiro[5.5]undecan-9-yl]-5-(cyclopropylmethylsulfinyl)furan-2-carboxamide]	5.93	6.00	94.8
O=C(NC1CC2(C1)CN(c1nc3cc(Cl)ccc3o1)C2)c1ccc(S(=O)(=O)C2CC2)o1 [Example 44, N-[2-(5-chloro-1,3-benzoxazol-2-yl)-2-azaspiro[3.3]heptan-6-yl]-5-cyclopropylsulfonyl-furan-2-carboxamide]	5.64	5.89	> 100
O=C(NC1CC2(C1)CN(c1nc3cc(Cl)ccc3o1)C2)c1ccnc(S(=O)(=O)C2CC2)c1 [Example 66, N-[2-(5-chloro-1,3-benzoxazol-2-yl)-2-azaspiro[3.3]heptan-6-yl]-2-cyclopropylsulfonyl-pyridine-4-carboxamide]	6.11	6.22	84.2
O=C(NC1CCC2(CC1)CN(c1nc3cc(Cl)ccc3o1)C2)c1ccc(C(F)(F)F)o1 [Example 70, N-[2-(5-chloro-1,3-benzoxazol-2-yl)-2-azaspiro[3.5]nonan-7-yl]-5-(trifluoromethyl)furan-2-carboxamide]	5.22	5.53	> 100
O=C(NC1CC2(C1)CN(c1nc3cc(Cl)ccc3o1)C2)C1CS(=O)(=O)C1 [Example 34, N-[2-(5-chloro-1,3-benzoxazol-2-yl)-2-azaspiro[3.3]heptan-6-yl]-1,1-dioxo-thietane-3-carboxamide]	5.26	5.35	> 100
Cc1ccc(S(=O)(=O)N2CCC(CC(=O)NCC3CCN(c4nc5cc(Cl)ccc5o4)CC3)CC2)cc1 [Example 20, N-[[1-(5-chloro-1,3-benzoxazol-2-yl)-4-piperidyl]methyl]-2-[1-(p-tolylsulfonyl)-4-piperidyl]acetamide]	5.41	5.39	> 10
O=C(NC1CCC2(CC1)CCN(c1nc3cc(Cl)ccc3o1)CC2)C1CCS(=O)(=O)CC1 [Example 96, N-[3-(5-chloro-1,3-benzoxazol-2-yl)-3-azaspiro[5.5]undecan-9-yl]-1,1-dioxo-thiane-4-carboxamide]	6.02	6.14	93.6
O=C(NC1CC2(CCN(c3nc4ccc(Cl)cc4o3)C2)C1)C1CCS(=O)(=O)C1 (stereo not drawn) [Example 73, N-[6-(6-chloro-1,3-benzoxazol-2-yl)-6-azaspiro[3.4]octan-2-yl]-1,1-dioxo-thiolane-3-carboxamide]	5.20	5.52	> 100
Cc1ccc(S(=O)(=O)N2CCC(C(=O)NCC3CCN(c4nc5cc(Cl)ccc5o4)CC3)CC2)cc1 [Example 16, N-[[1-(5-chloro-1,3-benzoxazol-2-yl)-4-piperidyl]methyl]-1-(p-tolylsulfonyl)piperidine-4-carboxamide]	5.43	5.44	> 10
CCS(=O)(=O)c1cc(C(=O)NC2CC3(C2)CN(c2nc4cc(Cl)ccc4o2)C3)ccn1 [Example 53, N-[2-(5-chloro-1,3-benzoxazol-2-yl)-2-azaspiro[3.3]heptan-6-yl]-2-ethylsulfonyl-pyridine-4-carboxamide]	5.85	6.11	93.2
O=C(NC1CC2(CCN(c3nc4cc(Cl)ccc4o3)C2)C1)c1ccc(C(F)(F)F)o1 (stereo not drawn) [Example 72, N-[6-(5-chloro-1,3-benzoxazol-2-yl)-6-azaspiro[3.4]octan-2-yl]-5-(trifluoromethyl)furan-2-carboxamide]	5.10	5.36	81.4
Cc1cc(C(=O)NC2CCC3(CC2)CCN(c2nc4cc(Cl)ccc4o2)CC3)ccn1 [Example 107, N-[3-(5-chloro-1,3-benzoxazol-2-yl)-3-azaspiro[5.5]undecan-9-yl]-2-methyl-pyridine-4-carboxamide]	6.30	6.37	> 100
O=C(NC1CC2(C1)CN(c1nc3cc(Cl)ccc3o1)C2)c1ccc(S(=O)(=O)NC2CC2)o1 [Example 59, N-[2-(5-chloro-1,3-benzoxazol-2-yl)-2-azaspiro[3.3]heptan-6-yl]-5-(cyclopropylsulfamoyl)furan-2-carboxamide]	5.55	5.84	> 10
O=C(NC1CC2(CCN(c3nc4cc(Cl)ccc4o3)CC2)C1)c1ccc(C(F)(F)F)o1 [Example 77, N-[7-(5-chloro-1,3-benzoxazol-2-yl)-7-azaspiro[3.5]nonan-2-yl]-5-(trifluoromethyl)furan-2-carboxamide]	5.30	5.53	> 100
O=C(NC1CCC2(CC1)CCN(c1nc3cc(Cl)ccc3o1)CC2)C1CC2(C1)CS(=O)(=O)C2 [Example 95, N-[3-(5-chloro-1,3-benzoxazol-2-yl)-3-azaspiro[5.5]undecan-9-yl]-2,2-dioxo-2-λ^6-thiaspiro[3.3]heptane-6-carboxamide]	5.78	5.44	> 100
